Earlier results as cited in US20130338098A1, “Topical Analgesic Compositions Containing Aliphatic Polyamines and Methods of Using Same” (Dermal Therapy (Barbados) Inc., priority 2000, published 2013).

Settings: orally, intravenously, intraperitoneally, and intramuscularly

For `NCCCCN` [putrescine, 1,4-diaminobutane], the Toxicity is listed as “very low toxicity”.
